Results taken from patent publication US20250171438A1 (Agios Pharmaceuticals, Inc., priority 2022, published 2025).

What follows are molecules tested against T1, human PAH with the R408W mutation (Homo sapiens, UniProt P00439, R408W) (assay: Cell Based Phenylalanine Flux Assay). Details: A375 cells expressing human R408W PAH; 24 hrs compound incubation; 13C-Tyrosine by LC-MS; average where tested multiple times; read-out: AC50.
T1 construct: expressed in transfected cells
T1 sequence (P00439 1-452 R408W): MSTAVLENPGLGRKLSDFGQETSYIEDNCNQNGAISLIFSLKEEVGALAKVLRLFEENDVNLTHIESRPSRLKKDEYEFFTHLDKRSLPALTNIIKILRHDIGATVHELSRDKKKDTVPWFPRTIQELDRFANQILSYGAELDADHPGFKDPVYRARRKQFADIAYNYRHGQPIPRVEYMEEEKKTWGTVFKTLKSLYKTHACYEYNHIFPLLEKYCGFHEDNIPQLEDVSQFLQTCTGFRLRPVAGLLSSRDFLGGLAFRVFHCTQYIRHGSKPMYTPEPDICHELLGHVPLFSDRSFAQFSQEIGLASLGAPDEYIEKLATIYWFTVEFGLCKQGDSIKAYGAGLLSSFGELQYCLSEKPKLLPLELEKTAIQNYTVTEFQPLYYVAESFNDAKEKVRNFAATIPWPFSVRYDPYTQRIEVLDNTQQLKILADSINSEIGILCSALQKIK
For `O=C(CCc1nccs1)N1CCc2[nH]cnc2[C@H]1c1nccs1` [Example 2139, (S)-3-(thiazol-2-yl)-1-(4-(thiazol-2-yl)-6,7-dihydro-1H-imidazo[4,5-c]pyridin-5(4H)-yl)propan-1-one], the AC50 was > 5000 nM.
In the case of `O=C(c1cnn2ccc(Br)cc12)N1CCc2[nH]cnc2[C@H]1c1nc2ccc(Br)cc2[nH]1` [Example 997, (S)-(4-(6-bromo-1H-benzo[d]imidazol-2-yl)-6,7-dihydro-1H-imidazo[4,5-c]pyridin-5(4H)-yl)(5-bromopyrazolo[1,5-a]pyridin-3-yl)methanone], the AC50 is reported as 1000 to 5000 nM.
`O=C(c1nnc(-c2ccc(C(F)(F)F)cc2)o1)N1CCc2[nH]cnc2[C@H]1c1nc2ccccc2s1` [Example 1768] gave an AC50 of 500 to 1000 nM.
`Cc1nc(C)c(C(=O)N2CCc3[nH]cnc3[C@@H]2c2nc3ccccc3s2)o1` [Example 1164, (R)-(4-(benzo[d]thiazol-2-yl)-6,7-dihydro-1H-imidazo[4,5-c]pyridin-5(4H)-yl)(2,4-dimethyloxazol-5-yl)methanone] was tested, and the AC50 was > 5000 nM.
For `O=C(c1cnn2ccccc12)N1CCc2[nH]cnc2[C@H]1c1nc2cccc(Cl)c2[nH]1` [Example 986, (S)-(4-(7-chloro-1H-benzo[d]imidazol-2-yl)-6,7-dihydro-1H-imidazo[4,5-c]pyridin-5(4H)-yl)(pyrazolo[1,5-a]pyridin-3-yl)methanone], the AC50 was 500 to 1000 nM.
For `O=C(c1cnn(CC(F)(F)F)c1C(F)F)N1CCc2[nH]cnc2[C@H]1c1nc2ccccc2s1` [Example 1973], the AC50 was < 500 nM.
`O=C(c1cnc(C(F)(F)F)o1)N1CCc2[nH]cnc2[C@@H]1c1nc2ccccc2s1` [Example 1348, (R)-(4-(benzo[d]thiazol-2-yl)-6,7-dihydro-1H-imidazo[4,5-c]pyridin-5(4H)-yl)(2-(trifluoromethyl)oxazol-5-yl)methanone] gave an AC50 of 1000 to 5000 nM.
In the case of `c1ccc2[nH]c([C@H]3c4nc[nH]c4CCN3c3nc4ccccc4o3)nc2c1` [Example 987, (R)-2-(4-(1H-benzo[d]imidazol-2-yl)-6,7-dihydro-1H-imidazo[4,5-c]pyridin-5(4H)-yl)benzo[d]oxazole], the AC50 is reported as > 5000 nM.
For `Cc1nc(CN(C)C)oc1C(=O)N1CCc2[nH]cnc2[C@@H]1c1nc2ccccc2s1` [Example 1694, (R)-(4-(benzo[d]thiazol-2-yl)-6,7-dihydro-1H-imidazo[4,5-c]pyridin-5(4H)-yl)(2-((dimethylamino)methyl)-4-methyloxazol-5-yl)methanone], the AC50 was > 5000 nM.
In the case of `O=C(CCc1nccs1)N1CCc2[nH]cnc2[C@H]1c1nc(Br)cs1` [Example 2150], the AC50 is reported as 1000 to 5000 nM.
With `Cc1ccc2c(C(=O)N3CCc4[nH]cnc4[C@H]3c3nc4ccccc4s3)cnn2c1` [Example 1087] the AC50 was 500 to 1000 nM.
`Cn1nc(C(=O)N2CCc3[nH]cnc3[C@H]2c2nc3ccccc3s2)c2ccccc21` [Example 1525] showed an AC50 of 500 to 1000 nM.
`O=C(c1ncc(Cl)s1)N1CCc2[nH]cnc2[C@H]1c1nc2ccc(Br)cc2[nH]1` [Example 975, (S)-(4-(6-bromo-1H-benzo[d]imidazol-2-yl)-6,7-dihydro-1H-imidazo[4,5-c]pyridin-5(4H)-yl)(5-chlorothiazol-2-yl)methanone] was tested, and the AC50 was 500 to 1000 nM.
Work on “(R)-(4-(benzo[d]thiazol-2-yl)-6,7-dihydro-1H-imidazo[4,5-c]pyridin-5(4H)-yl)(6-bromopyrazolo[1,5-a]pyridin-3-yl)methanone [Example 1046]” yielded an AC50 of 1000 to 5000 nM.
With `O=C(CCc1nccs1)N1CCc2[nH]cnc2[C@@H]1c1ncc(Br)s1` [Example 2149, (R)-1-(4-(5-bromothiazol-2-yl)-6,7-dihydro-1H-imidazo[4,5-c]pyridin-5(4H)-yl)-3-(thiazol-2-yl)propan-1-one] the AC50 was > 5000 nM.
In the case of `COCc1nc(Br)c(C(=O)N2CCc3[nH]cnc3[C@H]2c2nc3c(F)cccc3s2)o1` [Example 1776], the AC50 is reported as < 500 nM.
With `O=C(c1cn(CC(F)(F)F)nc1C(F)F)N1CCc2[nH]cnc2[C@H]1c1nc2c(F)cccc2s1` [Example 1987] the AC50 was < 500 nM.
With `CC(O)c1nc(Br)c(C(=O)N2CCc3[nH]cnc3[C@H]2c2nc3c(F)cccc3s2)o1` (single isomer, unassigned) [Example 2057] the AC50 was < 500 nM.
`Cn1cc(-c2ncc(C(=O)N3CCc4[nH]cnc4[C@H]3c3nc4ccccc4s3)o2)cn1` [Example 1344] showed an AC50 of 500 to 1000 nM.
Work on `O=C(N1CCc2[nH]cnc2[C@@H]1c1nc2c(F)cccc2s1)C(F)(F)C1(O)CCC1` [Example 1656, (R)-2,2-difluoro-1-(4-(4-fluorobenzo[d]thiazol-2-yl)-6,7-dihydro-1H-imidazo[4,5-c]pyridin-5(4H)-yl)-2-(1-hydroxycyclobutyl)ethanone] yielded an AC50 of 1000 to 5000 nM.
In the case of `O=C(c1ncc(Cl)s1)N1CCc2[nH]cnc2[C@H]1c1nc2c(F)cccc2s1` [Example 1219], the AC50 is reported as < 500 nM.
In the case of `N#Cc1ncoc1C(=O)N1CCc2[nH]cnc2[C@H]1c1nc2c(F)cccc2s1` [Example 1661, (S)-5-(4-(4-fluorobenzo[d]thiazol-2-yl)-4,5,6,7-tetrahydro-1H-imidazo[4,5-c]pyridine-5-carbonyl)oxazole-4-carbonitrile], the AC50 is reported as 500 to 1000 nM.
Work on `Cc1ncoc1C(=O)N1C[C@H](C)c2[nH]cnc2[C@H]1c1nc2ccccc2s1` [Example 1546, ((4S,7S)-4-(benzo[d]thiazol-2-yl)-7-methyl-1,4,6,7-tetrahydro-5H-imidazo[4,5-c]pyridin-5-yl)(4-methyloxazol-5-yl)methanone] yielded an AC50 of 500 to 1000 nM.
Work on `O=C(c1nccs1)N1CCc2[nH]cnc2[C@H]1c1nc2cccc(F)c2s1` [Example 1101, (S)-(4-(7-fluorobenzo[d]thiazol-2-yl)-6,7-dihydro-1H-imidazo[4,5-c]pyridin-5(4H)-yl)(thiazol-2-yl)methanone] yielded an AC50 of 500 to 1000 nM.
Work on `O=C(c1cnn(-c2ccccn2)c1Cl)N1CCc2[nH]cnc2[C@@H]1c1nc2ccccc2s1` [Example 1896, (R)-(4-(benzo[d]thiazol-2-yl)-6,7-dihydro-1H-imidazo[4,5-c]pyridin-5(4H)-yl)(5-chloro-1-(pyridin-2-yl)-1H-pyrazol-4-yl)methanone] yielded an AC50 of 1000 to 5000 nM.

Same assay, conditions: A375 cells expressing human R408W PAH; 24 hrs with compound; 13C-Tyrosine by LC-MS; average where tested multiple times; read-out: AC50
In the case of `O=C(c1ncc(Cl)s1)N1CCc2[nH]cnc2C1c1nc2ccc(F)cc2s1` (stereo not drawn), the AC50 is reported as > 5000 nM.
In the case of `O=C(CCc1ccccc1)N1CCc2[nH]cnc2C1c1nc2ccccc2[nH]1` (stereo not drawn), the AC50 is reported as 1000 to 5000 nM.
`CC1CN(C(=O)c2cnn3cc(CN(C)C)ccc23)C(c2nc3ccccc3s2)c2nc[nH]c21` (stereo not drawn) was tested, and the AC50 was > 5000 nM.
With `Cc1nc(C(C)(C)O)oc1C(=O)N1CC2(CC2)c2[nH]cnc2C1c1nc2ccccc2s1` (stereo not drawn) the AC50 was > 5000 nM.
With `Cc1nc(NC2CC2)oc1C(=O)N1CCCc2[nH]cnc2C1c1nc2ccccc2s1` (stereo not drawn) the AC50 was > 5000 nM.
`O=C(c1cnc(C2CCC(F)(F)CC2)s1)N1CCc2[nH]cnc2C1c1nc2ccccc2s1` (stereo not drawn) gave an AC50 of 500 to 1000 nM.
With `O=C(c1cnn2c(Br)cccc12)N1CCc2[nH]cnc2C1c1nc2ccc(Br)cc2[nH]1` (stereo not drawn) the AC50 was > 5000 nM.
For `O=C(c1cnn2cc(Cl)ccc12)N1CCc2[nH]cnc2C1c1nc2ccc(Br)cc2[nH]1` (stereo not drawn), the AC50 was > 5000 nM.
For `O=C(CCc1ccncc1)N1CCc2[nH]cnc2C1c1nc2ccccc2[nH]1` (stereo not drawn), the AC50 was > 5000 nM.
`O=C(c1cnn2cc(CO)ccc12)N1CCc2[nH]cnc2C1c1nc2ccccc2s1` (stereo not drawn) showed an AC50 of 1000 to 5000 nM.
For `O=C(C1CC1F)N1CCc2[nH]cnc2C1c1nc2ccccc2s1` (stereo not drawn), the AC50 was 1000 to 5000 nM.
For `O=C(c1cnn2cc(Br)ccc12)N1CCc2[nH]cnc2C1c1nc2ccc(Br)cc2[nH]1` (stereo not drawn), the AC50 was > 5000 nM.
For `O=C(c1cnn2cc(CCc3ccccc3)ccc12)N1CCc2[nH]cnc2C1c1nc2ccccc2s1` (stereo not drawn), the AC50 was 1000 to 5000 nM.
For `Cc1nc(-c2ccccn2)c(C(=O)N2CCc3[nH]cnc3C2c2nc3ccccc3s2)o1` (stereo not drawn), the AC50 was > 5000 nM.
